Measurements from PubChem BioAssay (NCI).
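Five concentrations, 48 hours, 96-well plates. GI50 = concentration required for 50% inhibition of growth. TGI: total growth inhibition.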

Columns and labels:
Assay in all cases: DTP human tumour cell line panel, 48 h
HCT-15 colon = test system: HCT-15 colon
NCI-H23 lung = test system: NCI-H23 lung
SW-620 colon = test system: SW-620 colon
HOP-62 NSCLC = test system: HOP-62 NSCLC
OVCAR-4 ovarian = test system: OVCAR-4 ovarian
RPMI-8226 leukemia = test system: RPMI-8226 leukemia
SK-MEL-2 melanoma = test system: SK-MEL-2 melanoma
SNB-75 CNS = test system: SNB-75 CNS
U251 CNS = test system: U251 CNS
UACC-62 melanoma = test system: UACC-62 melanoma

Work on OCCN1CCN(c2nc(Nc3ccc(-c4nc5ccccc5[nH]4)cc3)c3cn[nH]c3n2)CC1 yielded a GI50 (HCT-15 colon) of 1.15 µM, a TGI (HCT-15 colon) of 2.5 µM and a GI50 (NCI-H23 lung) of 1.83 µM. It also gave a TGI (NCI-H23 lung) of 3.54 µM, a GI50 (SW-620 colon) of 0.464 µM and a TGI (SW-620 colon) of 1.87 µM.

Cc1n(-c2ccccc2)c2c([n+]1Cc1ccc([N+](=O)[O-])cc1)C(=O)c1ccccc1C2=O gave a TGI (HCT-15 colon) of 22.5 µM, a TGI (HOP-62 NSCLC) of 16.6 µM and a TGI (NCI-H23 lung) of 5.22 µM. The TGI (OVCAR-4 ovarian) was 3.2 µM, the TGI (RPMI-8226 leukemia) was 3.82 µM and the TGI (SK-MEL-2 melanoma) was 2.97 µM. For the same compound, the TGI (SNB-75 CNS) was 13.1 µM, the TGI (SW-620 colon) was 6.63 µM and the TGI (U251 CNS) was 3.35 µM. For the same compound, the TGI (UACC-62 melanoma) was 3.74 µM.

In the case of Nc1nc(Sc2ccc([N+](=O)[O-])cn2)c2[nH]cnc2n1, the TGI (HCT-15 colon) is reported as > 73.3 µM, the TGI (HOP-62 NSCLC) is reported as > 100 µM and the TGI (NCI-H23 lung) is reported as 31.2 µM. The TGI (OVCAR-4 ovarian) was > 61.2 µM, the TGI (RPMI-8226 leukemia) was > 100 µM and the TGI (SK-MEL-2 melanoma) was 10.2 µM. For the same compound, the TGI (SNB-75 CNS) was 63.9 µM, the TGI (SW-620 colon) was > 100 µM and the TGI (U251 CNS) was > 64.3 µM. The TGI (UACC-62 melanoma) was 11.6 µM.

Work on Cc1cc(=O)[nH]c(NN2C(Cl)C(=O)C2c2c(O)ccc3ccccc23)n1 (stereo not drawn) yielded a TGI (HCT-15 colon) of 36.9 µM, a TGI (HOP-62 NSCLC) of 77 µM and a TGI (NCI-H23 lung) of 39.7 µM. It also gave a TGI (OVCAR-4 ovarian) of 51.7 µM, a TGI (RPMI-8226 leukemia) of 53.5 µM and a TGI (SK-MEL-2 melanoma) of 30.2 µM. The TGI (SNB-75 CNS) was 39.2 µM, the TGI (SW-620 colon) was > 100 µM and the TGI (U251 CNS) was 63.1 µM. For the same compound, the TGI (UACC-62 melanoma) was 47.4 µM.

With CCN(CC)CCOCC1CCCN2CCCCC12 (stereo not drawn) the TGI (HCT-15 colon) was > 100 µM, the TGI (HOP-62 NSCLC) was > 100 µM and the TGI (NCI-H23 lung) was > 100 µM. For the same compound, the TGI (OVCAR-4 ovarian) was > 100 µM, the TGI (RPMI-8226 leukemia) was > 100 µM and the TGI (SK-MEL-2 melanoma) was > 100 µM. For the same compound, the TGI (SNB-75 CNS) was > 100 µM, the TGI (SW-620 colon) was > 100 µM and the TGI (U251 CNS) was > 100 µM. For the same compound, the TGI (UACC-62 melanoma) was > 100 µM.

For NS(=O)(=O)c1ccc(N=Nc2nc3[nH]cnc(=S)c3[nH]2)cc1, the TGI (HCT-15 colon) was > 50.9 µM, the TGI (HOP-62 NSCLC) was > 51.1 µM and the TGI (NCI-H23 lung) was 14.2 µM. For the same compound, the TGI (OVCAR-4 ovarian) was > 100 µM, the TGI (RPMI-8226 leukemia) was 6.53 µM and the TGI (SNB-75 CNS) was > 100 µM. The TGI (SW-620 colon) was > 100 µM, the TGI (U251 CNS) was > 100 µM and the TGI (UACC-62 melanoma) was 8.72 µM.

With Cc1n(CC(C)C)c2c([n+]1CC(=O)c1ccc([N+](=O)[O-])cc1)C(=O)c1ccccc1C2=O the TGI (HCT-15 colon) was 15.6 µM, the TGI (HOP-62 NSCLC) was 1.15 µM and the TGI (NCI-H23 lung) was < 0.0142 µM. The TGI (OVCAR-4 ovarian) was 0.055 µM, the TGI (RPMI-8226 leukemia) was 0.757 µM and the TGI (SK-MEL-2 melanoma) was 0.0837 µM. The TGI (SNB-75 CNS) was 0.641 µM, the TGI (SW-620 colon) was < 0.036 µM and the TGI (U251 CNS) was 0.034 µM. For the same compound, the TGI (UACC-62 melanoma) was 0.104 µM.

With NC(N)=NCCCC(NCc1c2ccccc2[n+]([O-])c2ccccc12)C(=O)O (stereo not drawn) the TGI (HCT-15 colon) was > 100 µM, the TGI (HOP-62 NSCLC) was > 100 µM and the TGI (NCI-H23 lung) was > 100 µM. The TGI (OVCAR-4 ovarian) was > 100 µM, the TGI (RPMI-8226 leukemia) was 96.2 µM and the TGI (SK-MEL-2 melanoma) was > 100 µM. The TGI (SNB-75 CNS) was 88.7 µM, the TGI (SW-620 colon) was > 100 µM and the TGI (U251 CNS) was > 100 µM. The TGI (UACC-62 melanoma) was > 100 µM.

In the case of COc1cc(O)c2c(c1O)C(=O)c1cc(C)ncc1C2=O, the TGI (HCT-15 colon) is reported as > 50 µM, the TGI (HOP-62 NSCLC) is reported as > 50 µM and the TGI (NCI-H23 lung) is reported as 27.2 µM. For the same compound, the TGI (OVCAR-4 ovarian) was > 50 µM, the TGI (RPMI-8226 leukemia) was > 50 µM and the TGI (SK-MEL-2 melanoma) was > 50 µM. For the same compound, the TGI (SNB-75 CNS) was > 50 µM, the TGI (SW-620 colon) was > 50 µM and the TGI (U251 CNS) was 30.7 µM. For the same compound, the TGI (UACC-62 melanoma) was > 50 µM.

In the case of c1ccc(C2=NN[C@H](c3cn(-c4ccccc4)nc3-c3ccccc3)C2)cc1, the GI50 (HCT-15 colon) is reported as > 100 µM, the TGI (HCT-15 colon) is reported as > 100 µM and the GI50 (HOP-62 NSCLC) is reported as 2.16 µM. The TGI (HOP-62 NSCLC) was 5.58 µM, the GI50 (NCI-H23 lung) was 7.21 µM and the TGI (NCI-H23 lung) was > 100 µM. The GI50 (RPMI-8226 leukemia) was > 100 µM, the TGI (RPMI-8226 leukemia) was > 100 µM and the GI50 (SK-MEL-2 melanoma) was 30.2 µM. The TGI (SK-MEL-2 melanoma) was > 100 µM, the GI50 (SNB-75 CNS) was 2.05 µM and the TGI (SNB-75 CNS) was 4.19 µM. For the same compound, the GI50 (SW-620 colon) was 9.34 µM, the TGI (SW-620 colon) was > 100 µM and the GI50 (U251 CNS) was 2.91 µM. The TGI (U251 CNS) was 15.6 µM, the GI50 (UACC-62 melanoma) was 6.61 µM and the TGI (UACC-62 melanoma) was > 100 µM.

Work on C=CCCCCn1c2ccccc2c2c(C)c3c[n+](C)ccc3c(C)c21 yielded a TGI (HOP-62 NSCLC) of 1.94 µM, a TGI (OVCAR-4 ovarian) of 1.27 µM and a TGI (RPMI-8226 leukemia) of 1.43 µM. For the same compound, the TGI (SK-MEL-2 melanoma) was 1.52 µM, the TGI (SW-620 colon) was 1.34 µM and the TGI (U251 CNS) was 1.14 µM. It also gave a TGI (UACC-62 melanoma) of 1.28 µM.

With CCCCCCCSCC1OC(n2cnc3c(N)ncnc32)C(O)C1O (stereo not drawn) the TGI (HCT-15 colon) was 22.7 µM, the TGI (NCI-H23 lung) was > 100 µM and the TGI (OVCAR-4 ovarian) was 93 µM. The TGI (RPMI-8226 leukemia) was 69 µM, the TGI (SK-MEL-2 melanoma) was 44.8 µM and the TGI (SNB-75 CNS) was > 100 µM. The TGI (SW-620 colon) was 46.5 µM and the TGI (U251 CNS) was > 100 µM.

In the case of CCCC(=O)[O-].CCCC(=O)[O-].N.N.N.N.[Co+3].[O-][Cl+3]([O-])([O-])[O-], the TGI (HCT-15 colon) is reported as > 100 µM, the TGI (HOP-62 NSCLC) is reported as > 100 µM and the TGI (NCI-H23 lung) is reported as > 100 µM. For the same compound, the TGI (OVCAR-4 ovarian) was > 100 µM, the TGI (RPMI-8226 leukemia) was > 100 µM and the TGI (SK-MEL-2 melanoma) was > 100 µM. The TGI (SNB-75 CNS) was > 100 µM, the TGI (SW-620 colon) was > 100 µM and the TGI (U251 CNS) was > 100 µM. For the same compound, the TGI (UACC-62 melanoma) was > 100 µM.

In the case of Oc1c2c(c3c4c1N=CC=4CCN=3)C1(C=C(Br)C(O)C(Br)=C1)CCN2 (stereo not drawn), the TGI (HCT-15 colon) is reported as 4.42 µM, the TGI (HOP-62 NSCLC) is reported as 33.4 µM and the TGI (NCI-H23 lung) is reported as 2.64 µM. For the same compound, the TGI (OVCAR-4 ovarian) was 2.86 µM, the TGI (RPMI-8226 leukemia) was 7.41 µM and the TGI (SK-MEL-2 melanoma) was 11.8 µM. It also gave a TGI (SNB-75 CNS) of 24.5 µM, a TGI (SW-620 colon) of 4.19 µM and a TGI (U251 CNS) of 5.44 µM. It also gave a TGI (UACC-62 melanoma) of 2.66 µM.
